# From patent US6399590B2, “Phosphoglycolipid and methods for its use” (Corixa Corporation, priority 1998, dated 2002)
# Legend:
# [1] = test system: pig model of regional myocardial ischemia/reperfusion; test: Infarct size in pigs, 40 min LAD occlusion and 3 h reperfusion; assay type: in vivo; details: i.v. 10 min prior to coronary artery occlusion (35 μg/kg); FIG. 4
# Experimental: To assess the efficacy of L34 to reduce infarct size, nine pigs were assigned in a non-blinded fashion to one of four groups: (1) control (n=2), (2) vehicle control (n4), (3) L34 (35 μg/kg) (n=2), (4) L34 (70 μg/kg) (n=1). L34 was formulated in 10% ethanol, 40% propylene glycol in Water for Injection. Blinded studies were additionally conducted with eight pigs randomly assigned to one of two treatment groups: (1) A (n=4), (2) B (n=4). Group A and B were either vehicle control or L34. Vehicle or drug injection was diluted one to one with 5% dextrose in Water for Injection prior to administration.
# Male pigs (15-20 kg) were anesthetized with ketamine (25 mg/kg, i.m.) and sodium pentobarbital (10 mg/kg, i.v.), intubated and mechanically ventilated with room air. Pigs were placed on a 37° C. circulating water heating pad. The left carotid artery of each animal was cannulated with 5Fr Millar catheter for measuring left ventricular pressure and the right carotid artery was cannulated with 24G I.V. catheter for sampling blood. A median sternotomy was performed and the pericardium was incised. […]
# Following 40 min of occlusion, the snare was released and the myocardium was reperfused for 3 h. The hemodynamic parameters at certain time points were recorded and blood samples were collected. […]
# [2] = test system: TNF-α secretion by THP-1 cells; test: TNF-α secretion in THP-1 cells (ELISA); assay type: cell-based, human; details: any concentration between 1 ng/ml and 10 μg/ml; supernatants at 4, 16 and 24 hours
# Experimental: The human myelomonocytic cell line THP-1 is commonly used for the analysis of the proinflammatory status of various compounds. THP-1 cells (American Type Culture Collections Cat. No. 202-TIB) were grown in RPMI 1640, 10% heat inactivated fetal bovine serum (FBS) and […] β-mercaptoethanol to a cell density of between 4×10^5/ml and 7×10^5/ml. Cells were removed from culture and resuspended at 1×10^6 cells/ml in RPMI 1640 containing 5% fetal bovine serum. Resuspended cells were then pipetted into sterile, disposable polystyrene 150×25 mm petri dishes and treated with the natural maturational agent 1α, 25-dihyroxyvitamin D3 at 1×10^−7 M between 24 and 72 hours depending on the degree of maturation desired. These maturationally “pretreated” cells were then washed 3× in RPMI 1640 containing more than 2% but less than 10% fetal bovine serum. After the third wash cells were resuspended in RPMI 1640 containing 5% FBS plus 2% human AB sera (Irvine Scientific) at 5×10^5 cells/ml and transferred at 2 ml per well in a tissue culture grade, flat bottom polystyrene 24 well plate. […] Cytokine concentration in the THP-1 culture supernatants were quantified using standard human cytokine ELISA kits from R&D Laboratories. […]
# [3] = test system: Mongrel dogs, LAD occlusion/reperfusion; test: Infarct size in dogs with bolus plus drug infusion; assay type: in vivo, dog; details: FIG. 3
# Experimental: Mongrel dogs weighing 16-24 kg were randomly assigned to one of four groups: vehicle control; L34 high dose bolus plus infusion; L34 low dose bolus plus infusion and L34 bolus only. Animals in the L34 high dose bolus plus infusion group received an intravenous bolus injection of 70 μg/kg L34 formulated in vehicle (40% propylene glycol and 10% ethanol in water) and diluted in 5% dextrose in water to a final volume of 10 ml immediately followed by 40 μg/kg/h infusion of the drug beginning three hours prior to occlusion. The low dose bolus plus infusion group of dogs were bolus dosed with 35 μg/kg of drug followed immediately thereafter by infusion of drug at a dose of 4.0 μg/kg/h. […]
# After stabilization, animals underwent a 60 min period of occlusion. Heart rate and arterial pressures were monitored at baseline, immediately before the sustained occlusion, and at 10 min after the onset of occlusion. […] The severity of ischemia was assessed in all dogs by measurement of RMBF at 10 min after the onset of LAD occlusion.
# At the end of 3 h reperfusion the LAD was reoccluded and UNISPERSE® blue pigment (0.25-0.5 ml/kg) was injected into the coronary vasculature via the left atrial catheter to delineate the in vivo boundaries of the occluded LAD bed, and, with animals under deep anesthesia, cardiac arrest was produced by intracardiac injection of KCl. […] RMBF was then quantified using standard methods.
structure (smiles),measurement,setting,value
"CCCCCCCCCCCCCCCCCC(=O)O[C@H](CCCCCCCCCCC)CC(=O)N[C@H]1[C@H](OC[C@H]2OC(O)[C@H](NC(=O)C[C@@H](CCCCCCCCCCC)OC(=O)CCCCCCCCCCCCCCC)[C@@H](O)[C@@H]2O)O[C@H](CO)[C@@H](OP(=O)(O)O)[C@@H]1OC(=O)C[C@@H](CCCCCCCCCCC)OC(=O)CCCCCCCCCCCCC (stereo partly drawn) [L34, 2-Deoxy-6-O-[2-deoxy-4-O-phosphono-3-O-[(R)-3-tetradecanoyloxytetradecanoyl]-2-[(R)-3-octadecanoyloxytetradecanoylamino]-β-D-glucopyranosyl]-2-[(R)-3-hexadecanoyloxytetradecanoylamino]-D-glucopyranose]",reduction in infarct size expressed as % AN/AR in g compared to controls,[1],46%
same,TNF-α secretion,[2],did not induce detectable
same,infarct size as ratio of area of necrosis (AN) to area at risk (AR),"[3]; 70 μg/kg bolus only, 3 h before occlusion",no reduction in infarct size
same,infarct size as ratio of area of necrosis (AN) to area at risk (AR),[3]; bolus (70 or 35 μg/kg) plus infusion (40 or 4.0 μg/kg/h) beginning 3 h prior to occlusion,statistically significant reduction in infarct size
